Assay results reported in the supplement of paper PMC13380429.

Tests used:
Conditions in all cases: 72 h
[1] = tested on: Caco-2; assay: cell viability relative to DMSO; higher = less toxic
[2] = tested on: Calu-3; assay: as above
[3] = tested on: HepG2; assay: as above
[4] = tested on: U2OS; assay: as above
[5] = tested on: Caco-2; assay: relative viability EC50 (midpoint between 100% and the lowest measured viability); higher = less toxic
[6] = tested on: Calu-3; assay: as above
[7] = tested on: HepG2; assay: as above
[8] = tested on: U2OS; assay: as above
[9] = tested on: Caco-2; assay: drug sensitivity score (DSS) for viability; higher = more toxic; extreme values may be limits of the assay
[10] = tested on: Calu-3; assay: as above
[11] = tested on: HepG2; assay: as above
[12] = tested on: U2OS; assay: as above
[13] = tested on: Vero E6; assay: cell viability relative to DMSO; higher = less toxic
[14] = tested on: Vero E6; assay: relative viability EC50 (midpoint between 100% and the lowest measured viability); higher = less toxic
[15] = tested on: Vero E6; assay: drug sensitivity score (DSS) for viability; higher = more toxic; extreme values may be limits of the assay

SMILES	cell viability ([1]; 1 nM) [%]	cell viability ([1]; 10 nM) [%]	cell viability ([1]; 100 nM) [%]	cell viability ([1]; 1000 nM) [%]	cell viability ([1]; 10000 nM) [%]	cell viability ([2]; 1 nM) [%]	cell viability ([2]; 10 nM) [%]	cell viability ([2]; 100 nM) [%]	cell viability ([2]; 1000 nM) [%]	cell viability ([2]; 10000 nM) [%]	cell viability ([3]; 1 nM) [%]	cell viability ([3]; 10 nM) [%]	cell viability ([3]; 100 nM) [%]	cell viability ([3]; 1000 nM) [%]	cell viability ([3]; 10000 nM) [%]	cell viability ([4]; 1 nM) [%]	cell viability ([4]; 10 nM) [%]	cell viability ([4]; 100 nM) [%]	cell viability ([4]; 1000 nM) [%]	cell viability ([4]; 10000 nM) [%]	relative viability EC50 [5] [µM]	relative viability EC50 [6] [µM]	relative viability EC50 [7] [µM]	relative viability EC50 [8] [µM]	drug sensitivity score [9]	drug sensitivity score [10]	drug sensitivity score [11]	drug sensitivity score [12]	cell viability ([13]; 1 nM) [%]	cell viability ([13]; 10 nM) [%]	cell viability ([13]; 100 nM) [%]	cell viability ([13]; 1000 nM) [%]	cell viability ([13]; 10000 nM) [%]	relative viability EC50 [14] [nM]	drug sensitivity score [15]
COc1ccc2c(c1)c(CC(=O)O)c(C)n2C(=O)c1ccc(Cl)cc1 [indomethacin]	95.6	98.6	101	98.4	94.6	99.2	96.4	90.7	84.3	91.8	105	100	108	94.7	95	98.9	102	97.8	101	99.7	> 10	> 10	> 10	> 10	0	1	0	0	–	–	–	–	–	–	–
CC(=O)SCCC(=O)N1[C@H](C)CCC[C@@H]1C(=O)O [methiopril]	96.1	103	93.8	100	89.6	99.2	99.6	96.8	97.5	88.1	109	99.3	98.6	96	97.2	–	–	–	–	–	> 10	> 10	> 10	–	0	0.1	0	–	–	–	–	–	–	–	–
COCCOC(=O)C1=C(C)NC(C)=C(C(=O)OC/C=C/c2ccccc2)C1c1cccc([N+](=O)[O-])c1 (stereo unspecified) [cilnidipine]	91.1	94.3	94	92.9	67.7	99.2	105	93.3	105	95.2	118	104	114	104	91.8	99.1	103	98.8	104	85	–	> 10	> 10	> 10	2.5	0	0	0.1	–	–	–	–	–	–	–
COc1cc2ncnc(Nc3ccc(O)c(Br)c3)c2cc1OC [WHI-P154]	95.8	96.6	89.8	83.6	68.8	106	103	94.3	72.6	28.6	108	102	101	89.7	70	103	101	99.5	93.1	86.3	–	1.29	–	> 10	3.4	7.2	2.7	0.4	101	98.4	82.8	68	35.6	642	8.2
N[C@@H]1CCCCN(c2c(F)cc3c(=O)c(C(=O)O)cn(C4CC4)c3c2Cl)C1 [besifloxacin]	97.1	98.4	100	104	93.5	100	97.3	100	103	107	102	92.2	108	113	97.8	98.2	99.5	95.6	102	98.9	> 10	> 10	> 10	> 10	0	0	0	0	–	–	–	–	–	–	–
Clc1ccc(COC(Cn2ccnc2)c2ccc(Cl)cc2Cl)cc1 (stereo unspecified) [econazole]	94.5	90.1	97	90.9	68.6	104	103	103	102	98.5	100	98.1	102	97.3	72.6	102	97.8	95.6	95.3	90.7	–	> 10	–	> 10	2.5	0	1.5	0	104	108	106	102	94.7	> 10000	0
CC(=O)N[C@H]1[C@H]([C@H](O)[C@H](O)CO)OC(O)(C(=O)O)C[C@@H]1O (mixture of isomers) [aceneuramic-acid]	106	99	85.8	99.3	93.6	113	99.6	99.2	97.1	90.4	94.6	90.1	99.9	67.9	86.1	–	–	–	–	–	> 10	> 10	–	–	0	0	2.5	–	102	97.4	101	93.7	98	> 10000	0
O=C(NOCC(O)CO)c1cc(Br)c(F)c(F)c1Nc1ccc(I)cc1F (stereo unspecified)	102	92.3	73.3	69.5	68.7	94.8	81.8	73.3	62.1	43.2	99.5	97.9	46.1	25.7	21.3	103	94.7	92.7	97.6	67.8	–	0.102	0.0645	–	9.1	11.8	20.9	1.8	93.8	88.6	76.7	55.2	51.3	–	11.1
COc1cc(-c2ncn(/C=C\C(=O)OC(C)C)n2)cc(C(F)(F)F)c1 [KPT-185]	94.7	96.5	92.2	57	38.9	99.4	91.1	81.8	55.6	51.9	105	100	84.3	29.1	23.9	98.1	93.7	89.5	11.3	4.1	0.48	–	0.218	0.284	9	10	15.1	17.6	97.1	102	96.4	41.8	20	573	11.6
O=C(CNC(=O)c1ccc(Cl)cc1)NO [benurestat]	98.5	98.5	97.4	98.5	98.1	107	104	103	103	99.3	110	108	104	101	95.8	96.8	104	97.5	104	95.1	> 10	> 10	> 10	> 10	0	0	0	0	–	–	–	–	–	–	–
COc1cc([C@@H]2c3cc4c(cc3[C@@H](O[C@@H]3O[C@@H]5CO[C@@H](c6cccs6)O[C@H]5[C@H](O)[C@H]3O)[C@H]3COC(=O)[C@H]23)OCO4)cc(OC)c1O [teniposide]	108	95.7	100	71	29	91.1	92.6	75.8	47.2	40.6	89.6	86.1	47.3	27.8	9.9	99.3	94.4	92.7	66.5	4.2	1.16	0.129	0.0761	1.37	7.8	12.6	21.5	9.4	106	92.8	100	75	64	–	4.6
CC(C)C[C@H](NC(=O)CNC(=O)[C@H](Cc1ccc(O)cc1)NC(=O)[C@H](CO)NC(=O)[C@H](Cc1c[nH]c2ccccc12)NC(=O)[C@H](Cc1cnc[nH]1)NC(=O)[C@@H]1CCC(=O)N1)C(=O)N[C@@H](CCCNC(=N)N)C(=O)N1CCC[C@H]1C(=O)NCC(N)=O [gonadorelin]	106	96	100	99.7	100	94.7	98.8	92.2	86.9	97.5	108	86.8	102	101	96.2	97.4	100	98.4	98	97.7	> 10	> 10	> 10	> 10	0	0	0	0	–	–	–	–	–	–	–
C[C@@H]1C[C@H]2[C@@H]3CCC4=CC(=O)C=C[C@]4(C)[C@@]3(F)[C@@H](O)C[C@]2(C)[C@@]1(O)C(=O)COP(=O)(O)O [DEXAMETHASONE SODIUM PHOSPHATE]	95.9	88	99.7	96.2	97.5	106	107	89.9	105	90	111	108	100	97.8	93.6	99.8	98.8	97.7	95.8	95.7	> 10	> 10	> 10	> 10	0	0	0	0	–	–	–	–	–	–	–
CCCCCCNC(=O)n1cc(F)c(=O)[nH]c1=O [carmofur]	107	98.5	95	97.8	61.7	95.4	93.1	90	94.8	83.7	100	98.3	101	76.4	42.5	98.7	103	98.5	99.5	54	–	> 10	1.16	–	2.2	0.4	6.3	2.4	106	102	102	97.4	58.8	–	2.4
N#CCC(=O)c1ccccc1	106	105	89.2	98.2	102	103	108	96.3	100	94.7	94.9	103	101	106	96.2	100	99.9	100	98.3	104	> 10	> 10	> 10	> 10	0	0	0	0	–	–	–	–	–	–	–
